{
  "source": "ChEMBL document CHEMBL3886696",
  "about": "“Compounds and methods for treating ocular diseases” (2016)",
  "key": {"[1]": {"biological_target": "T1, Prostaglandin E2 receptor EP2 subtype (Homo sapiens, UniProt P43116)", "T1 sequence (P43116 whole entry)": "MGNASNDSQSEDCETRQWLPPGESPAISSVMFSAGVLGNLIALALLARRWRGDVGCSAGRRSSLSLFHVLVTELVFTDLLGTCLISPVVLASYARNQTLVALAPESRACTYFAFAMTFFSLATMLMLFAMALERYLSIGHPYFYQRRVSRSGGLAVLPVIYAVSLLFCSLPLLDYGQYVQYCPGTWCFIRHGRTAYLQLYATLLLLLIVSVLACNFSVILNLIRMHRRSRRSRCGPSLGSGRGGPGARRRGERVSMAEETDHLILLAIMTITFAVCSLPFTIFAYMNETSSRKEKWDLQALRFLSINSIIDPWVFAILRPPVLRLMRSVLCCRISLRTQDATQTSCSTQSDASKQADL", "experiment": "(§1) cAMP Assay: EP4 receptors couple to Gs and mediate elevations in cAMP concentration, although they do participate in other pathways as well. There are some redundancies in function between EP2 and EP4 receptors. For example, both receptors induce PGE2-mediated RANKL through cAMP.", "type": "functional"}, "[2]": {"biological_target": "T2, Prostaglandin E2 receptor EP4 subtype (Homo sapiens, UniProt P35408)", "T2 sequence (P35408 whole entry)": "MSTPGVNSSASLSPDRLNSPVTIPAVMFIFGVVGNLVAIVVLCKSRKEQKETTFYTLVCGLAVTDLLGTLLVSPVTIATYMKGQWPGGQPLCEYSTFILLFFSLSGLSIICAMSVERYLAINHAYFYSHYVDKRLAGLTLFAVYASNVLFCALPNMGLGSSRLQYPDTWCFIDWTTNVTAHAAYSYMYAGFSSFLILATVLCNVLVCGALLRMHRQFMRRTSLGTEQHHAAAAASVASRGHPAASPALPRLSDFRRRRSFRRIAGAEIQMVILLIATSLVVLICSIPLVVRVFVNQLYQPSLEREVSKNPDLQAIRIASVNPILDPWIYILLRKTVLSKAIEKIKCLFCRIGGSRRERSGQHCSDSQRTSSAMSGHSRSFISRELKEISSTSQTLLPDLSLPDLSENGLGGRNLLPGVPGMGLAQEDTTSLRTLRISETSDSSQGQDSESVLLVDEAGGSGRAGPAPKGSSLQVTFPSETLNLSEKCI", "experiment": "as §1", "type": "functional"}, "[3]": {"biological_target": "T1, Prostaglandin E2 receptor EP2 subtype", "experiment": "(§2) Radioligand Binding: HEK-293 cells stably expressing the human or feline FP receptor, or EP1, EP2, or EP4 receptors were washed with TME buffer, scraped from the bottom of the flasks, and homogenized for 30 sec using a Brinkman PT 10/35 polytron. TME buffer was added to achieve a final 40 ml volume in the centrifuge tubes (the composition of TME is 100 mM TRIS base, 20 mM MgCl2, […]; 10N HCl is added to achieve a pH of 7.4). The cell homogenate was centrifuged at 19000 r.p.m. for 20 min at 4 °C. using a Beckman Ti-60 rotor. The resultant pellet was resuspended in TME buffer to give a final 1 mg/ml protein concentration, as determined by Biorad assay. Radioligand binding competition assays vs. [3H-]17-phenyl PGF2a (5 nM) were performed in a 100 μl volume for 60 min. Binding reactions were started by adding plasma membrane fraction. The reaction was terminated by the addition of 4 ml ice-cold TRIS-HCl buffer and rapid filtration through glass fiber GF/B filters using a Brandel cell harvester. The filters were washed 3 times with ice-cold buffer and oven dried for one hour. [3H−] PGE2 (specific activity 180 Ci mmol) was used as the radioligand for EP receptors. [3H] 17-phenyl PGF2a was employed for FP receptor binding studies. Binding studies employing EP1, EP2, EP4 and FP receptors were performed in duplicate in at least three separate experiments. A 200 μl assay volume was used. […]", "type": "cell-free"}, "[4]": {"biological_target": "T2, Prostaglandin E2 receptor EP4 subtype", "experiment": "as §2", "type": "cell-free"}},
  "data": [
    {"smiles": "O=C(O)c1ccc(CCCN2[C@@H](/C=C/C(O)Cc3cccc(OC(F)(F)F)c3)CCS2(=O)=O)s1", "note": "(some centres undefined)", "values": [
      {"measurement": "EC50", "setting": "[1]", "value": 0.038, "unit": "µM"},
      {"measurement": "EC50", "setting": "[2]", "value": 0.001, "unit": "µM"},
      {"measurement": "EC50", "setting": "[3]", "value": 0.096, "unit": "µM"},
      {"measurement": "EC50", "setting": "[4]", "value": 0.053, "unit": "µM"}
    ]}
  ]
}
